Source: US7138361B2, “Herbicidal heterocycles” (E. I. du Pont de Nemours and Company, priority 2000, dated 2006)

What was measured:
Assay type in all cases: in vivo
[1] = system: goosegrass (Eleusine indica); assay: Test C postemergence
Method in brief: (§1)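 Response scores (0 no effect to 100 complete control) came from visual comparison with untreated controls 12 to 14 days after treatment. Preemergence application was made to seeded soil; postemergence, to plants at the 1- to 4-leaf stage.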

[2] = system: lambsquarters (Chenopodium album); assay: Test C postemergence
Method in brief: as §1

soybean (Glycine max) = assay: Test C postemergence
Method in brief: as §1

[3] = system: velvetleaf (Abutilon theophrasti); assay: Test C postemergence; conditions: scale 0 to 100
Method in brief: as §1

[4] = system: winter barley (Hordeum vulgare); assay: Test C postemergence; conditions: Rate 250 g/ha, scale 0 to 100 (0 no effect, 100 complete control)
Method in brief: as §1

[5] = system: morning glory (Ipomoea spp.); assay: Test A postemergence, sprayed to runoff; parameters: scale not given here; conditions: Morningglory, approx. eleven days
Procedure: (§2) Seeds of barnyardgrass (Echinochloa crus-galli), crabgrass (Digitaria spp.), giant foxtail (Setaria viridis), morning glory (Ipomoea spp.), redroot pigweed (Amaranthus retroflexus) and velvetleaf (Abutilon theophrasti) were planted into a sandy loam soil and treated preemergence by soil drench with test chemicals formulated in a non-phytotoxic solvent mixture which included a surfactant. At the same time, these crop and weed species were also treated postemergence sprayed to runoff with test chemicals formulated in the same manner. Plants ranged in height from two to eighteen cm and were in the one- to two-leaf stage for the postemergence treatment. Treated plants and untreated controls were maintained in a greenhouse for approximately eleven days, after which time all treated plants were compared to untreated controls and visually evaluated for injury. Plant response ratings, summarized in Table A, are based on a 0 to 10 scale where 0 is no effect and 10 is complete control. A dash (-) response means no test results.

[6] = system: velvetleaf (Abutilon theophrasti); assay: Test A postemergence, sprayed to runoff; parameters: scale not given here; conditions: approx. eleven days
Procedure: as §2

[7] = system: barnyardgrass (Echinochloa crus-galli); assay: Test A postemergence, sprayed to runoff; conditions: approx. eleven days
Procedure: as §2

[8] = system: crabgrass (Digitaria spp.); assay: Test A postemergence, sprayed to runoff; conditions: approx. eleven days
Procedure: as §2

[9] = system: giant foxtail (Setaria viridis); assay: Test A postemergence, sprayed to runoff; conditions: approx. eleven days
Procedure: as §2

[10] = system: redroot pigweed (Amaranthus retroflexus); assay: Test A postemergence, sprayed to runoff; conditions: approx. eleven days
Procedure: as §2

[11] = system: barnyardgrass (Echinochloa crus-galli); assay: Test A preemergence, soil drench; conditions: approx. eleven days
Procedure: as §2

[12] = system: crabgrass (Digitaria spp.); assay: Test A preemergence, soil drench; conditions: approx. eleven days
Procedure: as §2

[13] = system: giant foxtail (Setaria viridis); assay: Test A preemergence, soil drench; conditions: approx. eleven days
Procedure: as §2

[14] = system: morning glory (Ipomoea spp.); assay: Test A preemergence, soil drench; conditions: Morningglory, approx. eleven days
Procedure: as §2

[15] = system: redroot pigweed (Amaranthus retroflexus); assay: Test A preemergence, soil drench; conditions: approx. eleven days
Procedure: as §2

[16] = system: velvetleaf (Abutilon theophrasti); assay: Test A preemergence, soil drench; conditions: approx. eleven days
Procedure: as §2

[17] = Rate 250 g/ha, scale 0 to 100 (0 no effect, 100 complete control)

Structure (SMILES): Cc1ccc(N2CCC(n3ccc(C(C)(C)C)n3)C2=O)cc1OCCCl (stereo not shown) [Compound 109]
- Plant response rating, Goosegrass ([1]; Rate 31 g/ha, scale 0 to 100): 0
- Plant response rating, Goosegrass ([1]; Rate 62 g/ha, scale 0 to 100): 0
- Plant response rating, Goosegrass [1, 17]: 10
- Plant response rating, Lambsquarters ([2]; Rate 31 g/ha, scale 0 to 100): 70
- Plant response rating, Lambsquarters ([2]; Rate 62 g/ha, scale 0 to 100): 70
- Plant response rating, Lambsquarters [2, 17]: 100
- Plant response rating, Soybean (soybean (Glycine max); Rate 31 g/ha, scale 0 to 100): 60
- Plant response rating, Soybean (soybean (Glycine max); Rate 62 g/ha, scale 0 to 100): 70
- Plant response rating, Soybean (soybean (Glycine max); [17]): 70
- Plant response rating, Velvetleaf ([3]; Rate 31 g/ha): 20
- Plant response rating, Velvetleaf ([3]; Rate 62 g/ha): 40
- Plant response rating, Velvetleaf [3]: 70
- Plant response rating, Barley, Winter [4]: 0

Structure (SMILES): CC(C)(C)c1ccn(C2CCN(c3cccc(C(F)(F)F)c3)C2=O)n1 (stereo not shown) [Example 3, 3-[3-(1,1-dimethylethyl)-1H-pyrazol-1-yl]-1-[3-(trifluoromethyl)phenyl]-2-pyrrolidinone]
- Plant response rating (visual injury vs untreated controls) ([5]; Rate 250 g/ha): 10
- Plant response rating (visual injury vs untreated controls) ([5]; Rate 1000 g/ha): 10
- Plant response rating (visual injury vs untreated controls) ([6]; Rate 250 g/ha): 0
- Plant response rating (visual injury vs untreated controls) ([6]; Rate 1000 g/ha): 0
- Plant response rating (visual injury vs untreated controls) ([7]; Rate 250 g/ha): 20
- Plant response rating (visual injury vs untreated controls) ([7]; Rate 1000 g/ha): 10
- Plant response rating (visual injury vs untreated controls) ([8]; Rate 250 g/ha): 0
- Plant response rating (visual injury vs untreated controls) ([8]; Rate 1000 g/ha): 0
- Plant response rating (visual injury vs untreated controls) ([9]; Rate 250 g/ha): 0
- Plant response rating (visual injury vs untreated controls) ([9]; Rate 1000 g/ha): 10
- Plant response rating (visual injury vs untreated controls) ([10]; Rate 250 g/ha): 60
- Plant response rating (visual injury vs untreated controls) ([10]; Rate 1000 g/ha): 10
- Plant response rating (visual injury vs untreated controls) ([11]; Rate 250 g/ha): 100
- Plant response rating (visual injury vs untreated controls) ([11]; Rate 1000 g/ha): 100
- Plant response rating (visual injury vs untreated controls) ([12]; Rate 250 g/ha): 100
- Plant response rating (visual injury vs untreated controls) ([12]; Rate 1000 g/ha): 100
- Plant response rating (visual injury vs untreated controls) ([13]; Rate 250 g/ha): 100
- Plant response rating (visual injury vs untreated controls) ([13]; Rate 1000 g/ha): 100
- Plant response rating (visual injury vs untreated controls) ([14]; Rate 250 g/ha): 0
- Plant response rating (visual injury vs untreated controls) ([14]; Rate 1000 g/ha): 0
- Plant response rating (visual injury vs untreated controls) ([15]; Rate 250 g/ha): 100
- Plant response rating (visual injury vs untreated controls) ([15]; Rate 1000 g/ha): 100
- Plant response rating (visual injury vs untreated controls) ([16]; Rate 250 g/ha): 0
- Plant response rating (visual injury vs untreated controls) ([16]; Rate 1000 g/ha): 0

Structure (SMILES): CC(C)(C)c1ccn(C2OCN(c3cccc(C(F)(F)F)c3)C2=O)n1 (stereo not shown) [compound 9]
- Plant response rating (visual injury vs untreated controls) ([5]; Rate 500 g/ha): 10
- Plant response rating (visual injury vs untreated controls) ([5]; Rate 2000 g/ha): 10
- Plant response rating (visual injury vs untreated controls) ([6]; Rate 500 g/ha): 0
- Plant response rating (visual injury vs untreated controls) ([6]; Rate 2000 g/ha): 40
- Plant response rating (visual injury vs untreated controls) ([7]; Rate 500 g/ha): 80
- Plant response rating (visual injury vs untreated controls) ([7]; Rate 2000 g/ha): 90
- Plant response rating (visual injury vs untreated controls) ([8]; Rate 500 g/ha): 20
- Plant response rating (visual injury vs untreated controls) ([8]; Rate 2000 g/ha): 10
- Plant response rating (visual injury vs untreated controls) ([9]; Rate 500 g/ha): 30
- Plant response rating (visual injury vs untreated controls) ([9]; Rate 2000 g/ha): 100
- Plant response rating (visual injury vs untreated controls) ([10]; Rate 500 g/ha): 20
- Plant response rating (visual injury vs untreated controls) ([10]; Rate 2000 g/ha): 80
- Plant response rating (visual injury vs untreated controls) ([11]; Rate 500 g/ha): 100
- Plant response rating (visual injury vs untreated controls) ([11]; Rate 2000 g/ha): 100
- Plant response rating (visual injury vs untreated controls) ([12]; Rate 500 g/ha): 90
- Plant response rating (visual injury vs untreated controls) ([12]; Rate 2000 g/ha): 100
- Plant response rating (visual injury vs untreated controls) ([13]; Rate 500 g/ha): 100
- Plant response rating (visual injury vs untreated controls) ([13]; Rate 2000 g/ha): 100
- Plant response rating (visual injury vs untreated controls) ([14]; Rate 500 g/ha): 0
- Plant response rating (visual injury vs untreated controls) ([14]; Rate 2000 g/ha): 0
- Plant response rating (visual injury vs untreated controls) ([15]; Rate 500 g/ha): 100
- Plant response rating (visual injury vs untreated controls) ([15]; Rate 2000 g/ha): 100
- Plant response rating (visual injury vs untreated controls) ([16]; Rate 500 g/ha): 20
- Plant response rating (visual injury vs untreated controls) ([16]; Rate 2000 g/ha): 10
